Measurements reported in PubChem BioAssay AID1259411 (Chemical Carcinogenesis Research Information System (CCRIS), 2018).
Activity calls are given as the source filed them. How the calls were made is not given here.

System: rodent carcinogenicity bioassays, tumor incidence
Experiment: CCRIS carcinogenicity studies
Details: Species: RAT; Strain/Sex: WISTAR/MALE; Route: INTRAPERITONEAL; Tumor Site: Type of Lesion: KIDNEY: RENAL CELL CARCINOMA
From the text: The CCRIS database contains chemical records with carcinogenicity, mutagenicity, tumor promotion, and tumor inhibition test results. It was developed by the National Cancer Institute (NCI). Data are derived from studies cited in primary journals, current awareness tools, NCI reports, and other sources. Test results have been reviewed by experts in carcinogenesis and mutagenesis.
CCRIS provides historical information from the years 1985 - 2011. It is no longer updated.
This is an archive assay for CCRIS carcinogenicity studies.

O=C([O-])CN(CC(=O)[O-])CC(=O)[O-].[Cu+2]
carcinogen call: active; positive
